Measured values taken from US9783536B2, “Nitrogen-containing heterocyclic compound or salt thereof” (FUJIFILM Corporation, priority 2013, dated 2017).
Where a name gives a salt, the structure may show the parent alone. Read-outs that look alike come from different tables or passages of the source.

Assays:
human PI3Kα protein = molecular target: T1, human PI3Kα protein (Homo sapiens, UniProt P42336); test: PI3Kα enzyme assay (ADP-Glo); type: biochemical; conditions: read-out: PI3Kα enzyme inhibitory activity
T1 construct: purchased Carna Biosciences, Inc; host or cells: baculovirus expression system
T1 sequence (P42336 whole entry): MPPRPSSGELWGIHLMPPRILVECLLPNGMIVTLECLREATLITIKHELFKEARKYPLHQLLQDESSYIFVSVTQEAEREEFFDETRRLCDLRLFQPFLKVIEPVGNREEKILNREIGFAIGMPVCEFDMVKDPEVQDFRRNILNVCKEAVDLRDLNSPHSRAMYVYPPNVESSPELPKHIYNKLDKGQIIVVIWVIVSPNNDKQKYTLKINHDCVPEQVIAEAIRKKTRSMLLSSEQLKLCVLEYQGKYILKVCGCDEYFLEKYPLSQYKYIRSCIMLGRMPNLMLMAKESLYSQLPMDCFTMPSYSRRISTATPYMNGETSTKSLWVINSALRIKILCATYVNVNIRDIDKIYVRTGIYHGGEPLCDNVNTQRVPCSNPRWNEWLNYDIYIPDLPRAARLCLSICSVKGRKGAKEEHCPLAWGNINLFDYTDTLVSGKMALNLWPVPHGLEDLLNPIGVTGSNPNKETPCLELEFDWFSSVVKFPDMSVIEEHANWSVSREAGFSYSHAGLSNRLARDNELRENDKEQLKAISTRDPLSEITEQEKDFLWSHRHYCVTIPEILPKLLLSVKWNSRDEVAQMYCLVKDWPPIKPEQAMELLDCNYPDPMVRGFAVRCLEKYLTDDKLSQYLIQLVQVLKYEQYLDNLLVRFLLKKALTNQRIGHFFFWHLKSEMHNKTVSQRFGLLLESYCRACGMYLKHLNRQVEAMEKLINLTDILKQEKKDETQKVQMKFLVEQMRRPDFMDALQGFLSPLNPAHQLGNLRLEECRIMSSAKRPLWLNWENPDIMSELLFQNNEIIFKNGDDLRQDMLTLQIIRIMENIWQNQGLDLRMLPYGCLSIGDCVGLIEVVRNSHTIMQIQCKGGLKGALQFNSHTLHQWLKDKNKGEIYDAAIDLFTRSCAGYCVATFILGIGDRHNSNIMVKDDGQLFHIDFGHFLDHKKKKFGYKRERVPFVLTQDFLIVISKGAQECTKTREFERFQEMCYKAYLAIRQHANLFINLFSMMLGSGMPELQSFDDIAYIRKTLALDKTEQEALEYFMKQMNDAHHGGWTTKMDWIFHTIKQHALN
T1 sequence (P27986 whole entry partner): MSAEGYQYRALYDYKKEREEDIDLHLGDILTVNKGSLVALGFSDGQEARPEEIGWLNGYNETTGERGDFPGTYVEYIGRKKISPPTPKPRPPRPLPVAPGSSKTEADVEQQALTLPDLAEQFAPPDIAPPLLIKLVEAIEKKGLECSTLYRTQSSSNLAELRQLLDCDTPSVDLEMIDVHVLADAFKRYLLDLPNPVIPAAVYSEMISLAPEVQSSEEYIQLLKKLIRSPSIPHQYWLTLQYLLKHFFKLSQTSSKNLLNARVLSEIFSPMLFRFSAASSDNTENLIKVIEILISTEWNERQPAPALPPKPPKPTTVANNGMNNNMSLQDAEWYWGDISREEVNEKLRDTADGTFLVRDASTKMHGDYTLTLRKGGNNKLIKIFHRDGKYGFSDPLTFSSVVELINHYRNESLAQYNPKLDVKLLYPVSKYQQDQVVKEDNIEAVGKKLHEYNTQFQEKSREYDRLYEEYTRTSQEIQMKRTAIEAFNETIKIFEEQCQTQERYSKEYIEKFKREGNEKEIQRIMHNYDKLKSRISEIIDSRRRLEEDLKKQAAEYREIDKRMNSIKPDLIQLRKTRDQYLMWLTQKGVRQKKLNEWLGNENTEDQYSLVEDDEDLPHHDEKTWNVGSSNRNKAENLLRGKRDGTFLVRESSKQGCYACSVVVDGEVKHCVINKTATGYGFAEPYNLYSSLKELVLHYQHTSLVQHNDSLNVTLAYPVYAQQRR
Outline: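 Biotinylated human PI3Kα (baculovirus-expressed, 4.5 nmol/L) pre-incubated 15 min with compound in Tris-HCl pH 7.5, MgCl2, BSA; reaction 60 min at 25° C with 50 μmol/L PIP2 and 100 μmol/L ATP final. ADP quantified by ADP-Glo luminescence; IC50 calculated.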

[1] = molecular target: T2, GST fusion human ERK2 protein (Homo sapiens, UniProt P28482); test: ERK2 enzyme assay (1); type: biochemical; conditions: read-out: ERK2 enzyme inhibitory activity (1)
T2 construct: purchased Carna Biosciences, Inc; host or cells: E. coli expression system
T2 sequence (P28482 whole entry, the tested form may be a part): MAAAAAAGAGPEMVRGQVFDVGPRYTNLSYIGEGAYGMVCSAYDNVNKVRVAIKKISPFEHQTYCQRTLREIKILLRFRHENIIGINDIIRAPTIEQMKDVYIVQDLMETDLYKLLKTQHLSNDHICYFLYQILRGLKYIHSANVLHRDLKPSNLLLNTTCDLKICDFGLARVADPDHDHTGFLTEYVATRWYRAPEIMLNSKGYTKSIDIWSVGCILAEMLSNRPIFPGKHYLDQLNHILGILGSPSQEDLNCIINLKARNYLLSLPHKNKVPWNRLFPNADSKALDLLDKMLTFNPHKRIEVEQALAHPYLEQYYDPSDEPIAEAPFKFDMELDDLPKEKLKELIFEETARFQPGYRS
Method: In an ERK2 enzyme assay, GLUTATHIONE S-TRANSFERASE (GST) FUSION HUMAN ERK2 PROTEIN (manufactured by Carna Biosciences, Inc.), which was produced by using an E. coli expression system, was used.
12 μL of a reaction liquid (2.5 nmol/L ERK2, 100 mmol/L Hepes, 10 mmol/L MgCl2, 1.5 mmol/L DTT, 0.003% Brij35, pH 7.5) including ERK2 protein and a test compound having a predetermined concentration was allowed to stand at room temperature for 15 minutes. Then, 3 μL of a mixture liquid of FL-PEPTIDE8 (5-FAM-IPTSPITTTYFFFKKK-COOH) (manufactured by Caliper Life Sciences), which is substrate peptide, and ATP (manufactured by Sigma-Aldrich Co. LLC.) was added thereto such that the final concentrations thereof became 4.25 μmol/L and 43.1 μmol/L, respectively, and an enzyme reaction was performed by allowing to stand at 25° C. for 120 minutes.
After the reaction, the enzyme reaction was stopped by adding 30 μL of a reaction stopper liquid (100 mmol/L HEPES, 11.2 mmol/L EDTA, 5.6% Brij35, pH 7.5) including a 0.5% COATING REAGENT 8 (trade name, manufactured by Perkin Elmer Inc.) thereto. Then, phosphorylated peptide and non-phosphorylated peptide were separated using LABCHIP EZ READER (trade name, manufactured by Caliper Life Sciences), and the porportion of the phosphorylated peptide was quantified.
The inhibitory activities of the compounds were evaluated using IC50 (50% inhibitory concentration). The IC50 was calculated using XLFIT (trade name, manufactured by ID Business Solutions).

[2] = 4.5 nmol/L PI3Kα, PIP2 50 μmol/L, ATP 100 μmol/L
[3] = 2.5 nmol/L ERK2, ATP 43.1 μmol/L

SMILES | IC50 [1, 3] [nM] | IC50 ([1]; ERK2 enzyme assay (1)) [nM] | other results
Cn1cc(-c2cnc3ccc(Nc4nnc(S(N)(=O)=O)s4)nc3c2)cn1 [Example 0191, ((5-((7-(1-methyl-1H-pyrazol-4-yl)-1,5-naphthyridin-2-yl)amino)-1,3,4-thiadiazol-2-yl)sulfonyl)amide sodium salt] | < 1000 |  | IC50 (human PI3Kα protein; [2]): < 1000 nM
Cn1cc(-c2cc3nc(Nc4nncs4)ccc3nc2N)cn1 [Example 0306, 7-(1-methyl-1H-pyrazol-4-yl)-N^2-(1,3,4-thiadiazol-2-yl)-1,5-naphthyridine-2,6-diamine] |  | < 1000 | IC50 (human PI3Kα protein): < 1000 nM
CCC1=C(OC)C(OC)=CC(Nc2cnc3ccc(Nc4nnc(C5CCCC5)s4)nc3c2)C1 (stereo not drawn) [Example 0205] |  | < 1000 | IC50 (human PI3Kα protein): < 1000 nM
CC(C)c1cnnc(Nc2ccc3ncc(-c4cnn(-c5ccncc5)c4)cc3n2)c1 [Example 0399, N-(5-isopropylpyridazin-3-yl)-7-(1-(pyridin-4-yl)-1H-pyrazol-4-yl)-1,5-naphthyridine-2-amine] |  | < 1000 | IC50 (human PI3Kα protein): 1000 to 10000 nM
c1n[nH]cc1Nc1cnc2ccc(Nc3nnc(N4CCOCC4)s3)nc2c1 [Example 0225, N^2-(5-morpholino-1,3,4-thiadiazol-2-yl)-N^7-(1H-pyrazol-4-yl)-1,5-naphthyridine-2,7-diamine] |  | < 1000 | IC50 (human PI3Kα protein): 1000 to 10000 nM
COc1cc(Nc2cnc3ccc(Nc4nnc(C5CCCC5)s4)nc3c2)cc(OC)c1 [Example 0081] | < 1000 |  | IC50 (human PI3Kα protein; [2]): 1000 to 10000 nM
CNc1nnc(Nc2ccc3ncc(-c4cnn(CCN5CCOCC5)c4)cc3n2)s1 [Example 0249, N^2-methyl-N^5-(7-(1-(2-morpholinoethyl)-1H-pyrazol-4-yl)-1,5-naphthyridin-2-yl)-1,3,4-thiadiazole-2,5-diamine] |  | < 1000 | IC50 (human PI3Kα protein): < 1000 nM
CC(=O)N1CCC(Nc2cnc3ccc(Nc4nnc(C5CCCC5)s4)nc3c2)CC1 [Example 0063] | < 1000 |  | IC50 (human PI3Kα protein; [2]): < 1000 nM
c1ccc(-c2cncc(Nc3cnc4ccc(Nc5nnc(C6CCCC6)s5)nc4c3)c2)cc1 [Example 0070] | < 1000 |  | IC50 (human PI3Kα protein; [2]): < 1000 nM
c1nc2ccc(Nc3ncc(C4CCCC4)s3)nc2cc1-c1cnn(CCCN2CCCC2)c1 [Example 0126, 5-cyclopentyl-N-(7-(1-(3-(pyrrolidin-1-yl)propyl)-1H-pyrazol-4-yl)-1,5-naphthyridin-2-yl)thiazole-2-amine] | < 1000 |  | IC50 (human PI3Kα protein; [2]): < 1000 nM
COCCN(C)c1cnc2ccc(Nc3nnc(C4CCCC4)s3)nc2c1 [Example 0309] |  | < 1000 | IC50 (human PI3Kα protein): 1000 to 10000 nM
CC(C)c1nnc(Nc2ccc3nccc(-c4cncnc4)c3n2)s1 [Example 0278, 5-isopropyl-N-(8-(pyrimidin-5-yl)-1,5-naphthyridin-2-yl)-1,3,4-thiadiazole-2-amine] |  | < 1000 | IC50 (human PI3Kα protein): < 1000 nM
Clc1cc(Nc2cnc3ccc(Nc4nnc(C5CCCC5)s4)nc3c2)cnc1-n1cccn1 [Example 0078] | < 1000 |  | IC50 (human PI3Kα protein; [2]): < 1000 nM
Brc1cnc2ccc(Nc3nnc(C4CCCC4)s3)nc2c1 [Example 0039, N-(7-bromo-1,5-naphthyridin-2-yl)-5-cyclopentyl-1,3,4-thiadiazole-2-amine] | < 1000 |  | 
Cn1cc(-c2cnc3ccc(Nc4nnc(S(=O)(=O)Nc5ccccc5)s4)nc3c2)cn1 [Example 0176, 5-((7-(1-methyl-1H-pyrazol-4-yl)-1,5-naphthyridin-2-yl)amino)-N-phenyl-1,3,4-thiadiazole-2-sulfonamide] | < 1000 |  | IC50 (human PI3Kα protein; [2]): < 1000 nM
Cn1cc(-c2cnc3ccc(Nc4nnc(NS(=O)(=O)c5ccccc5)s4)nc3c2)cn1 [Example 0177, N-(5-((7-(1-methyl-1H-pyrazol-4-yl)-1,5-naphthyridin-2-yl)amino)-1,3,4-thiadiazol-2-yl)benzene sulfonamide hydrochloride] | < 1000 |  | IC50 (human PI3Kα protein; [2]): < 1000 nM
c1nnc(Nc2ccc3ncc(-c4cnn(CCN5CCOCC5)c4)cc3n2)s1 [Example 0002] | < 1000 |  | IC50 (human PI3Kα protein; [2]): < 1000 nM
Cc1noc(C)c1-c1cnc2ccc(Nc3nnc(C4CCCC4)s3)nc2c1 [Example 0216] |  | < 1000 | 
CC(C)(C)OC(=O)N1CC=C(c2cnc3ccc(Nc4nnc(C5CCCC5)s4)nc3c2)CC1 [Example 0328, tert-butyl 4-(6-((5-cyclopentyl-1,3,4-thiadiazol-2-yl)amino)-1,5-naphthyridin-3-yl)-5,6-dihydropyridine-1(2H)-carboxylate] |  | < 1000 | 
CC(C)(C)OC(=O)N1CCC(c2cnc3ccc(Nc4nnc(C5CCCC5)s4)nc3c2)CC1 [Example 0331, tert-butyl 4-(6-((5-cyclopentyl-1,3,4-thiadiazol-2-yl)amino)-1,5-naphthyridin-3-yl)piperidine-1-carboxylate] |  | 1000 to 10000 | 
COc1cccc(-c2cnc3ccc(Nc4nnc(C5CCCC5)s4)nc3c2)c1 [Example 0212] |  | < 1000 | 

SMILES | IC50 [1, 3] [nM] | IC50 ([1]; ERK2 enzyme assay (1)) [nM] | other results
Cc1nnc(Nc2ccc3ncc(-c4cnn(C)c4)cc3n2)o1 [Example 0031, 5-methyl-N-(7-(1-methyl-1H-pyrazol-4-yl)-1,5-naphthyridin-2-yl)-1,3,4-oxadiazole-2-amine hydrochloride] | 1000 to 10000 |  | 
COc1cc(-c2cnc3ccc(Nc4nnc(C5CCCC5)s4)nc3c2)cc(OC)c1OC [Example 0204] |  | < 1000 | 
c1cncc(Oc2cnc3ccc(Nc4nnc(C5CCCC5)s4)nc3c2)c1 [Example 0044, 5-cyclopentyl-N-(7-((pyridin-3-yl)oxy)-1,5-naphthyridin-2-yl)-1,3,4-thiadiazole-2-amine hydrochloride] | 1000 to 10000 |  | 
CC(C)c1cnnc(Nc2ccc3ncc(-c4ccccc4)cc3n2)c1 [Example 0408] |  | < 1000 | 
CSc1nnc(Nc2ccc3ncc(-c4cnn(C)c4)cc3n2)s1 [Example 0174, N-(7-(1-methyl-1H-pyrazol-4-yl)-1,5-naphthyridin-2-yl)-5-(methylthio)-1,3,4-thiadiazole-2-amine] | < 1000 |  | 
COc1ccc(-c2cnc3ccc(Nc4nnc(C5CCCC5)s4)nc3c2)cc1OC [Example 0203] |  | < 1000 | 
COc1ccc(Nc2ccc3ncc(-c4cnn(C)c4)cc3n2)nn1 [Example 0149] | 1000 to 10000 |  | 
c1cn(-c2cc(Nc3cnc4ccc(Nc5nnc(C6CCCC6)s5)nc4c3)ccn2)nn1 [Example 0080] | < 1000 |  | 
FC(F)(F)CN1CCN(c2cnc3ccc(Nc4nnc(C5CCCC5)s4)nc3c2)CC1 [Example 0049] | 1000 to 10000 |  | 
c1ccc(-c2cnc3ccc(Nc4nnc(C5CCCC5)s4)nc3c2)cc1 [Example 0218, 5-Cyclopentyl-N-(7-phenyl-1,5-naphthyridin-2-yl)-1,3,4-thiadiazole-2-amine] |  | < 1000 | 
COc1ccc(-c2cnc3ccc(Nc4nnc(C5CCCC5)s4)nc3c2)cc1 [Example 0213] |  | < 1000 | 
Cn1cc(-c2cnc3ccc(Nc4nnc(C(N)=O)s4)nc3c2)cn1 [Example 0168, 5-((7-(1-Methyl-1H-pyrazol-4-yl)-1,5-naphthyridin-2-yl)amino)-1,3,4-thiadiazole-2-carboxamide] | < 1000 |  | 
FC(F)(F)CN1CCC(n2cc(-c3cnc4ccc(Nc5nnc(C6CCCC6)s5)nc4c3)cn2)CC1 [Example 0340, 5-cyclopentyl-N-(7-(1-(1-(2,2,2-trifluoroethyl)piperidin-4-yl)-1H-pyrazol-4-yl)-1,5-naphthyridin-2-yl)-1,3,4-thiadiazole-2-amine] |  | < 1000 | 
C#Cc1cnc2ccc(Nc3nnc(C4CCCC4)s3)nc2c1 [Example 0042, 5-cyclopentyl-N-(7-ethynyl-1,5-naphthyridin-2-yl)-1,3,4-thiadiazole-2-amine hydrochloride] | 10000 to 50000 |  | 
COc1ccccc1-c1cnc2ccc(Nc3nnc(C4CCCC4)s3)nc2c1 [Example 0211] |  | < 1000 | 
Cn1cc(-c2cnc3ccc(Nc4nnc(C(F)(F)F)s4)nc3c2)cn1 [Example 0164] | < 1000 |  | 
Cn1cc(-c2cnc3ccc(Nc4nnc(-c5ccccc5)s4)nc3c2)cn1 [Example 0028] | < 1000 |  | 
Cn1cc(-c2cnc3ccc(Nc4nnc(C5CCC5)s4)nc3c2)cn1 [Example 0198, 5-Cyclobutyl-N-(7-(1-methyl-1H-pyrazol-4-yl)-1,5-naphthyridin-2-yl)-1,3,4-thiadiazole-2-amine] | < 1000 |  | 
COc1cccc(-c2ccnc3ccc(Nc4nnc(C(C)C)s4)nc23)c1 [Example 0271] |  | < 1000 | 
CCOC(=O)c1nnc(Nc2ccc3ncc(-c4cnn(C)c4)cc3n2)s1 [Example 0230] |  | < 1000 | 
